# Data published in patent publication US12552752B2, “Atropisomers of pyridazinone derivatives as herbicides” (FMC Corporation, priority 2020, dated 2026).
# Assays:
# Assay type in all cases: in vivo
# [1] = system: wheat (WWT, Triticum aestivum); assay: Test A postemergence, wheat; settings: POST, 0 to 100 scale, approximately 10 d
# From the text: (§1) Seeds of plant species selected from barnyardgrass (BYG, Echinochloa crus-galli), kochia (KOC, Kochia scoparia), ragweed (common ragweed, Ambrosia elatior), ryegrass, Italian (RGI, Lolium multiflorum), foxtail, giant (FTI, Setaria faberii), foxtail, green (Setaria viridis) and pigweed (PWR, Amaranthus retroflexus) were planted into a blend of loam soil and sand and treated preemergence with a directed soil spray using test chemicals formulated in a non-phytotoxic solvent mixture which included a surfactant. At the same time, plants selected from these weed species and also wheat (WWT, Triticum aestivum), corn (CPI, Zea mays), blackgrass (BKG, Alopecurus myosuroides) and galium (GAL, catchweed bedstraw, Galium aparine) were planted in pots containing the same blend of loam soil and sand and treated with postemergence applications of test chemicals formulated in the same manner Plants ranged in height from 2 to 10 cm and were in the one- to two-leaf stage for the postemergence treatment. Treated plants and untreated controls were maintained in a greenhouse for approximately 10 d, after which time all treated plants were compared to untreated controls and visually evaluated for injury. Plant response ratings, summarized in Tables 1-4, are based on a 0 to 100 scale where 0 is no effect and 100 is complete control. A dash (−) response means no test result. The ratings are followed by a letter representing the symptomology where S is Albinism, C is Chlorosis, G is Growth Inhibition and E is Emergence.
# [2] = system: pigweed (PWR, Amaranthus retroflexus); assay: Test A postemergence, pigweed; settings: POST, 0 to 100 scale, approximately 10 d
# From the text: as §1
# [3] = system: ryegrass, Italian (RGI, Lolium multiflorum); assay: Test A preemergence, Italian ryegrass; settings: PRE, 0 to 100 scale, approximately 10 d
# From the text: as §1
# [4] = system: ragweed (common ragweed, Ambrosia elatior); assay: Test A postemergence, ragweed; settings: POST, 0 to 100 scale, approximately 10 d
# From the text: as §1
# [5] = system: blackgrass (BKG, Alopecurus myosuroides); assay: Test A postemergence, blackgrass; settings: POST, 0 to 100 scale, approximately 10 d
# From the text: as §1
# [6] = system: pigweed (PWR, Amaranthus retroflexus); assay: Test A preemergence, pigweed; settings: PRE, 0 to 100 scale, approximately 10 d
# From the text: as §1
# [7] = system: foxtail, giant (FTI, Setaria faberii); assay: Test A preemergence, giant foxtail; settings: PRE, 0 to 100 scale, approximately 10 d
# From the text: as §1
# [8] = system: barnyardgrass (BYG, Echinochloa crus-galli); assay: Test A postemergence, barnyardgrass; settings: POST, 0 to 100 scale, approximately 10 d
# From the text: as §1
# [9] = system: kochia (KOC, Kochia scoparia); assay: Test A postemergence, kochia; settings: POST, 0 to 100 scale, approximately 10 d
# From the text: as §1
# [10] = system: galium (GAL, catchweed bedstraw, Galium aparine); assay: Test A postemergence, galium; settings: POST, 0 to 100 scale, approximately 10 d
# From the text: as §1
# [11] = system: kochia (KOC, Kochia scoparia); assay: Test A preemergence, kochia; settings: PRE, 0 to 100 scale, approximately 10 d
# From the text: as §1
# [12] = system: barnyardgrass (BYG, Echinochloa crus-galli); assay: Test A preemergence, barnyardgrass; settings: PRE, 0 to 100 scale, approximately 10 d
# From the text: as §1
# [13] = system: foxtail, giant (FTI, Setaria faberii); assay: Test A postemergence, giant foxtail; settings: POST, 0 to 100 scale, approximately 10 d
# From the text: as §1
# [14] = system: ryegrass, Italian (RGI, Lolium multiflorum); assay: Test A postemergence, Italian ryegrass; settings: POST, 0 to 100 scale, approximately 10 d
# From the text: as §1
# corn (CPI, Zea mays) = assay: Test A postemergence, corn; settings: POST, 0 to 100 scale, approximately 10 d
# From the text: as §1
# [15] = 31 g ai/ha, listed as drawing 30
# [16] = 125 g ai/ha, listed as drawing 30
# [17] = 31 g ai/ha, listed as drawing 27
# [18] = 125 g ai/ha, listed as drawing 27
# [19] = 31 g ai/ha, listed as drawing 29
# [20] = 125 g ai/ha, listed as drawing 29
# [21] = 31 g ai/ha, listed as drawing 26
# [22] = 125 g ai/ha, listed as drawing 26
smiles,measurement,setting,value
CCC(=O)Oc1c(Cl)nn(C)c(=O)c1-c1c(C)ccc2ccc(C)cc12 (racemic) [4 (Enantiomer 4B)],Plant response rating WWT,[1]; [15],0
same,Plant response rating WWT,[1]; [16],20 S
same,Plant response rating PWR,[2]; [15],100 C 100 C 100 C 100 C
same,Plant response rating PWR,[2]; [16],100 C 100 C 100 C 100 C
same,Plant response rating RGI,[3]; [15],80 S
same,Plant response rating RGI,[3]; [16],90 S
same,Plant response rating RWC,[4]; [15],90 S
same,Plant response rating RWC,[4]; [16],100 C
same,Plant response rating BKG,[5]; [15],20 S
same,Plant response rating BKG,[5]; [16],70 S
same,Plant response rating PWR,[6]; [15],100 C 100 C 100 C 100 C
same,Plant response rating PWR,[6]; [16],100 C 100 C 100 C 100 C
same,Plant response rating FTI,[7]; [15],100 C
same,Plant response rating FTI,[7]; [16],100 C
same,Plant response rating BYG,[8]; [15],70 S
same,Plant response rating BYG,[8]; [16],90 S
same,Plant response rating KOC,[9]; [16],50 S
same,Plant response rating GAL,[10]; [15],100 C 100 C
same,Plant response rating GAL,[10]; [16],100 C 100 C
same,Plant response rating KOC,[11]; [16],70 S
same,Plant response rating BYG,[12]; [15],100 C
same,Plant response rating BYG,[12]; [16],100 C
same,Plant response rating FTI,[13]; [15],80 S
same,Plant response rating FTI,[13]; [16],90 S
same,Plant response rating RGI,[14]; [15],80 C
same,Plant response rating RGI,[14]; [16],90 C
same,Plant response rating CPI,"corn (CPI, Zea mays); [15]",10 G
same,Plant response rating CPI,"corn (CPI, Zea mays); [16]",10 S
Cc1ccc2ccccc2c1-c1c(O)c(Cl)nn(C)c1=O (racemic) [3 (Enantiomer 3A)],Plant response rating WWT,[1]; 31 g ai/ha,0
same,Plant response rating PWR,[2]; 125 g ai/ha,100 C
same,Plant response rating RGI,[3]; [17],10 S
same,Plant response rating RWC,[4]; [18],100 C
same,Plant response rating KOC,[9]; 125 g ai/ha,90 S
same,Plant response rating GAL,[10]; [18],100 C
same,Plant response rating BYG,[12]; [18],50 S
same,Plant response rating FTI,[13]; [17],20 S
CCC(=O)Oc1c(Cl)nn(C)c(=O)c1-c1c(C)ccc2ccc(C)cc12 (racemic) [4 (Enantiomer 4A)],Plant response rating WWT,[1]; [19],0
same,Plant response rating WWT,[1]; [20],0
same,Plant response rating PWR,[2]; [19],90 S
same,Plant response rating PWR,[2]; [20],100 C
same,Plant response rating RGI,[3]; [19],0
same,Plant response rating RGI,[3]; [20],10 C
same,Plant response rating RWC,[4]; [19],80 S
same,Plant response rating RWC,[4]; [20],90 S
same,Plant response rating BKG,[5]; [19],10 C 10 C
same,Plant response rating BKG,[5]; [20],10 C 10 C
same,Plant response rating PWR,[6]; [19],90 C
same,Plant response rating PWR,[6]; [20],90 C
same,Plant response rating FTI,[7]; [19],0
same,Plant response rating FTI,[7]; [20],10 S
same,Plant response rating BYG,[8]; [19],0
same,Plant response rating BYG,[8]; [20],30 C
same,Plant response rating KOC,[9]; 31 g ai/ha,50 S
same,Plant response rating KOC,[9]; [20],60 S
same,Plant response rating GAL,[10]; [19],80 S
same,Plant response rating GAL,[10]; [20],100 C
same,Plant response rating KOC,[11]; 31 g ai/ha,10 C
same,Plant response rating KOC,[11]; [20],50 S
same,Plant response rating BYG,[12]; [19],0
same,Plant response rating BYG,[12]; [20],0
same,Plant response rating FTI,[13]; [19],0
same,Plant response rating FTI,[13]; [20],30 S
same,Plant response rating RGI,[14]; [19],10 C
same,Plant response rating RGI,[14]; [20],20 C
same,Plant response rating CPI,"corn (CPI, Zea mays); [19]",0
same,Plant response rating CPI,"corn (CPI, Zea mays); [20]",0
"Cc1ccc2ccc(C)c(-c3c(O)c(Cl)nn(C)c3=O)c2c1 (single isomer, unassigned) [2 (Enantiomer 2B)]",Plant response rating WWT,[1]; [21],0
same,Plant response rating WWT,[1]; [22],30 S
same,Plant response rating PWR,[2]; 125 g ai/ha,100 C 100 C 100 C 100 C
same,Plant response rating RGI,[3]; [21],80 S
same,Plant response rating RGI,[3]; [22],100 S
same,Plant response rating RWC,[4]; [21],100 C 100 C
same,Plant response rating RWC,[4]; [22],100 C 100 C
same,Plant response rating BKG,[5]; [21],30 C
same,Plant response rating BKG,[5]; [22],40 S
same,Plant response rating FTI,[7]; [21],100 C
same,Plant response rating FTI,[7]; [22],100 C
same,Plant response rating BYG,[8]; [21],80 C
same,Plant response rating BYG,[8]; [22],90 C
same,Plant response rating KOC,[9]; 31 g ai/ha,60 S
same,Plant response rating KOC,[9]; [22],70 S
same,Plant response rating GAL,[10]; [21],100 C
same,Plant response rating GAL,[10]; [22],90 C
same,Plant response rating KOC,[11]; [21],0
same,Plant response rating KOC,[11]; [22],90 C
same,Plant response rating BYG,[12]; [21],90 S
same,Plant response rating BYG,[12]; [22],100 C
same,Plant response rating FTI,[13]; [21],80 S
same,Plant response rating FTI,[13]; [22],90 S
same,Plant response rating RGI,[14]; [21],100 C
same,Plant response rating RGI,[14]; [22],100 C
same,Plant response rating CPI,"corn (CPI, Zea mays); [21]",0
same,Plant response rating CPI,"corn (CPI, Zea mays); 125 g ai/ha",30 G
